Consider 20 compounds from US20160318856A1, “Substituted Urea eIF2alpha Kinase Activators” (THE BRIGHAM AND WOMEN'S HOSPITAL, INC., priority 2013, published 2016).

Molecules are shown by their SMILES. Like-named read-outs stand apart in the source and are kept apart here. Where only a bound is given, the exact number is not on record here.

As usually defined, the IC50 is the concentration needed to halve the response being measured.

For experiment [1], the system named is eIF2α phosphorylation (eIF2•GTP•Met-tRNAi ternary complex; HRI activation). Description: surrogate dual luciferase eIF2α phosphorylation (ternary complex) assay. It counts as cell-based, human. The following applies: for maximal fold induction: Homo sapiens; for C3X: Calculated concentration of compound that will cause three-fold increase in the surrogate eIF2α phosphorylation assay: Table 7. An excerpt:
The dual luciferase expression vector and other plasmids used for these studies were previously described (see, for example, Ziegeler, G. et al. Journal of Biological Chemistry 2010, 285(20), 15408-19). The ternary complex assay, surrogate of eIF2α phosphorylation, has been described elsewhere (see, for example, Chen, T. et al. Nature Chemical Biology 2011, 7(9), 610-6). Briefly, the pBISA vector, which contains seven copies of the tetracycline-regulated transactivator response element (TRE), is flanked on both sides by minimal human cytomegalovirus (CMV) minimal promoters allowing bi-directional transcription and two MCSs (multiple cloning sites). Firefly and renilla luciferases were subcloned into MCS-I and MCS-II, respectively. This plasmid, designated pBISA-DL, transcribes two mRNAs that contain the 90 nucleotide plasmid derived 5′UTR (same sequence in both mRNAs), and the ORF encoding either firefly or renilla luciferase followed by a polyadenylation sequence. This plasmid was further modified by inserting the 5′UTR of ATF-4 mRNA into MCS-I in front of the firefly luciferase mRNA. Transcription from this unit generates an mRNA that contains the firefly luciferase ORF preceded by a 5′UTR composed of 90 nucleotides derived from the plasmid and 267 nucleotides derived from the 5′UTR of ATF-4 mRNA. Transcription from the other unit generates an mRNA that contains the renilla luciferase ORF proceeded only by the 90-nucleotide plasmid-derived sequence in the 5′UTR (pBISA-DL (ATF-4)) (see, for example, Chen, T. et al. Nature Chemical Biology 2011, 7(9), 610-6).
Cells expressing firefly and renilla luciferases were assayed with a dual glow luciferase assay kit, per manufacturer's instruction (Promega Inc., Madison, Wis.). The data calculations were carried out as the ratio of firefly to renilla luciferase signal.
A library of 1900 urea compounds was screened in the surrogate dual luciferase eIF2α phosphorylation (ternary complex) assay. This library was originally assembled and screened for inhibition of sEH by Hammock's group at UC-Davis (see, for example, Chen, T. et al. Nature Chem Biol 2011, 7, 610-616; Ziegeler, G et al. J Biol Chem 2010, 285, 15408-15419). We developed this assay in order to identify compounds that activate HRI, taking advantage of the fact that activated HRI phosphorylates eIF2α thereby reducing the amount of the eIF2•GTP•Met-tRNAi ternary complex that results in inhibition of translation of many mRNAs but paradoxically increases translation of some mRNAs that contain multiple upstream ORF (uORF) in their 5′ untranslated regions (UTRs). In our assay, firefly (F) luciferase mRNA is fused to 5′UTR of activating transcription factor 4 (ATF-4) mRNA that has multiple uORFs while renilla (R) luciferase mRNA is fused to a 5′UTR lacking any uORFs. Compounds that reduce the amount of the ternary complex, such as those activating HRI, would increase F luciferase expression while decreasing the R luciferase expression, resulting in an increased F/R luciferase ratio. To calculate the activity scores, the F/R ratios for every compound-treated wells were normalized to vehicle-treated (DMSO) wells that was arbitrarily set at 1 (F/R=1).

Another experiment deals with Panc-1. Description: cell proliferation (SRB) assay, Panc-1. To be noted: Homo sapiens, Table 7. It counts as cell-based. How it is done: (§1) Cells were seeded in 96-well plates and maintained for 5 days in the presence of 0.5 to 20 μM of individual compound, and cell proliferation was measured by the sulforhodamine B (SRB) assay as described previously (see, for example, Palakurthi, S. S. et al. Cancer Research 2000, 60(11), 2919-2925). Briefly, at the end of a 5-day treatment, cells were fixed in 10% cold trichloroacetic acid. Cell number was estimated by measuring the remaining bound dye of sulforhodamine B after washing. The percentage of growth was calculated by using the equation: 100×[(T−T0)/(C−T0)], where T and C represent the absorbance in treated and control cultures at Day 5, and T0 at time zero, respectively. If T is less than T0, cell death has occurred and can be calculated from 100×[(T−T0)/T0].
The compounds shown in Table 7 were evaluated using for activation of HRI using the dual luciferase surrogate eIF2α phosphorylation assay (see, for example, Chen, T. et al. Nature Chem Biol 2011, 7, 610-616) and for inhibition of cell proliferation using the SRB assay (see, for example, Palakurthi, S. S. et al. Cancer Res 2000, 60, 2919-2925) as described above.

Experiment [2] has as its system CRL-2813 human melanoma cancer cells. Description: cell proliferation (SRB) assay, CRL-2813. The experiment is classed as cell-based. How it is done: as §1
The mark [3] stands for this setting: DMSO = 1, maximum tested concentration 20 μM, read-out: Emax: Maximum activity of compound expressed as fold over vehicle.
Setting [4] is: Homo sapiens, CRL2813, SRB assay, Table 7, read-out: IC50 CRL-2813.
Setting [5] is: ternary complex assay, F/R normalized to vehicle (DMSO = 1).
The mark [6] stands for this setting: cell proliferation assay (SRB, 5 days), cell line not named in Table 1, values equal CRL-2813 values of Tables 5/8, read-out: IC50.
[7] abbreviates: cell proliferation assay, Table 2, cell line not named, read-out: IC50.

As to `N#Cc1cccc(NC(=O)N[C@H]2CC[C@H](Oc3ccc(C(F)(F)F)cc3)CC2)c1`, the maximal fold induction in experiment [1] (setting [3]) amounted to 10. Besides, the “C3X: Calculated concentration of compound that will cause three-fold increase in the surrogate eIF2α phosphorylation assay” value in experiment [1] is 2 µM. Also, the IC50 in the experiment on Panc-1 came out at 2500 nM; in experiment [2] (setting [4]), 800 nM.

As to `O=C(Nc1cccc(C(F)(F)F)c1)N[C@H]1CC[C@H](Oc2ccc(F)cc2)CC1`, the maximal fold induction in experiment [1] (setting [3]) came out at 11. The “C3X: Calculated concentration of compound that will cause three-fold increase in the surrogate eIF2α phosphorylation assay” value in experiment [1] was 2.5 µM. Moreover, the values for the IC50 (in the experiment with Panc-1; in experiment [2] (setting [4])) were 3000 nM and 2100 nM, respectively.

With `N#Cc1ccc(NC(=O)N[C@H]2CC[C@H](Oc3ccc(C(F)(F)F)cc3)CC2)cc1`, the maximal fold induction in experiment [1] (setting [3]) was determined as 9. The “C3X: Calculated concentration of compound that will cause three-fold increase in the surrogate eIF2α phosphorylation assay” value in experiment [1] is 0.6 µM. The results for the IC50 (with Panc-1; in experiment [2] (setting [4])) were 2000 nM and 900 nM, respectively.

As for `O=C(Nc1cccc(C(F)(F)F)c1)N[C@H]1CC[C@H](Oc2ccc(C(F)(F)F)cn2)CC1`, the maximal fold induction in experiment [1] (setting [3]) was 6. Besides, the “C3X: Calculated concentration of compound that will cause three-fold increase in the surrogate eIF2α phosphorylation assay” value in experiment [1] is 3.5 µM. The results for the IC50 (in the experiment on Panc-1; in experiment [2] (setting [4])) were 2800 nM and 1500 nM, respectively.

With `N#Cc1ccc(O[C@H]2CC[C@H](NC(=O)Nc3cccc(C(F)(F)F)c3)CC2)cc1`, in experiment [1] (setting [3]), the maximal fold induction came to 4. In addition, the “C3X: Calculated concentration of compound that will cause three-fold increase in the surrogate eIF2α phosphorylation assay” value in experiment [1] was 5 µM. The IC50 with Panc-1 worked out at 3000 nM; in experiment [2] (setting [4]), 4000 nM.

Turning to `N#Cc1cc(C(F)(F)F)ccc1O[C@H]1CC[C@H](NC(=O)Nc2cccc(C(F)(F)F)c2)CC1`, the maximal fold induction in experiment [1] (setting [3]) was 8. Further, in experiment [1], the “C3X: Calculated concentration of compound that will cause three-fold increase in the surrogate eIF2α phosphorylation assay” value was 2.5 µM. Further, the figures for the IC50 (in the experiment with Panc-1; in experiment [2] (setting [4])) were 1800 nM and 1300 nM, respectively.

Take `N#Cc1ccc(O[C@H]2CC[C@H](NC(=O)Nc3cccc(C#N)c3)CC2)cc1`: the IC50 in the experiment on Panc-1 was over 10000 nM; in experiment [2] (setting [4]), 7000 nM.

Consider `O=C(Nc1cccc(OC(F)(F)F)c1)N[C@H]1CC[C@H](Oc2ccc(OC(F)(F)F)cc2)CC1`, for which, in experiment [1] (setting [3]), the maximal fold induction worked out at 14. For the same compound, the “C3X: Calculated concentration of compound that will cause three-fold increase in the surrogate eIF2α phosphorylation assay” value in experiment [1] is 1.3 µM. For the same compound, the IC50 in the experiment on Panc-1 was found to be 3000 nM; in experiment [2] (setting [4]), 1200 nM.

With `O=C(Nc1cccc(C(F)(F)F)c1)NC1CCCCC1` [III-1, 1-Cyclohexyl-3-(3-(trifluoromethyl)phenyl)urea], the maximal fold induction in experiment [1] (surrogate eIF2α phosphorylation assay, Table 4, read-out: Emax (F/R)) amounted to 1.87. In addition, the IC50 in experiment [2] (Homo sapiens, CRL2813, cell proliferation assay, Table 4, cell line not named, read-out: IC50) is 13200 ± 2300 nM.

On to `O=C(Nc1ccccc1)NC1CCC(Oc2ccc(F)cc2)CC1` (centres unmarked) [Compound I-13], for which the “Emax (F/R)” value in experiment [1] (setting [5]) is 1.65 F/R. For the same compound, the IC50 in experiment [2] (setting [6]) was 20000 ± 2000 nM.

For the compound `Cc1cccc(NC(=O)N[C@H]2CC[C@H](OCc3c(F)cccc3F)CC2)c1` [II-7m], the “Emax (F/R)” value in experiment [1] (7.5 μM compound) is on record as 0.82 F/R; in experiment [1] (15 μM compound), 0.89 F/R; in experiment [1] (30 μM compound), 0.81 F/R. The IC50 in experiment [2] (setting [7]) was over 20000 nM.

Regarding `O=C(Nc1cccc(C(F)(F)F)c1)NC1CCC(Oc2ccc(Cl)cc2)CC1` (centres unmarked) [Compound I-16, 1-(4-(4-Chlorophenoxy)cyclohexyl)-3-(3-(trifluoromethyl)phenyl)urea], the maximal fold induction in experiment [1] (surrogate eIF2α phosphorylation assay, Table 3, read-out: Emax (F/R)) is 6.73. The IC50 in experiment [2] (Homo sapiens, CRL2813, cell proliferation assay, Table 3, cell line not named, values equal CRL-2813 values of Table 8, read-out: IC50) came out at 2000 ± 100 nM.

Take `O=C(Nc1cccc(Cl)c1)NC1CCC(Oc2ccc(F)cc2)CC1` (centres unmarked) [Compound I-2m]: the “Emax (F/R)” value in experiment [1] (setting [5]) was 8.76 F/R. In addition, the IC50 in experiment [2] (setting [6]) was found to be 5900 ± 600 nM.

As for `O=C(Nc1cc(C(F)(F)F)cc(C(F)(F)F)c1)N[C@H]1CC[C@H](Oc2ccc(C(F)(F)F)cc2)CC1`, the maximal fold induction in experiment [1] (setting [3]) came out at 38. Moreover, in experiment [1], the “C3X: Calculated concentration of compound that will cause three-fold increase in the surrogate eIF2α phosphorylation assay” value was 0.15 µM. Besides, the IC50 is 700 nM in the experiment with Panc-1 and 150 nM in experiment [2] (setting [4]).

Turning to `O=C(Nc1cccc(Br)c1)NC1CCC(Oc2ccc(F)cc2)CC1` (centres unmarked) [Compound I-3m], the “Emax (F/R)” value in experiment [1] (setting [5]) came out at 9.52 F/R. Further, in experiment [2] (setting [6]), the IC50 amounted to 6200 ± 300 nM.

Take `COc1ccc(NC(=O)N[C@H]2CC[C@H](OCc3c(F)cccc3F)CC2)cc1` [II-8p]: the results for the “Emax (F/R)” value in experiment [1] (7.5 μM compound), in experiment [1] (15 μM compound) and in experiment [1] (30 μM compound) were 0.74 F/R, 0.71 F/R and 0.68 F/R, respectively. In addition, the half-inhibitory concentration (IC50) in experiment [2] (setting [7]) is over 20000 nM.

In the case of `O=C(Nc1cccc([N+](=O)[O-])c1)N[C@H]1CC[C@H](OCc2c(F)cccc2F)CC1` [II-9m], the “Emax (F/R)” value is reported as 0.96 F/R in experiment [1] (7.5 μM compound), 0.76 F/R in experiment [1] (15 μM compound) and 0.94 F/R in experiment [1] (30 μM compound). The IC50 in experiment [2] (setting [7]) is over 20000 nM.

Regarding `N#Cc1ccc(NC(=O)N[C@H]2CC[C@H](Oc3ccc(C#N)cc3)CC2)cc1`, the IC50 (in the experiment with Panc-1; in experiment [2] (setting [4])) was 10000 nM in each case.

On to `O=C(Nc1ccccc1I)NC1CCC(Oc2ccc(F)cc2)CC1` (centres unmarked) [Compound I-4o], for which the “Emax (F/R)” value in experiment [1] (setting [5]) is 3.25 F/R. Moreover, in experiment [2] (setting [6]), the IC50 is over 20000 nM.

`O=C(Nc1ccccc1OC(F)(F)F)NC1CCC(Oc2ccc(F)cc2)CC1` (centres unmarked) [Compound I-6o]: the “Emax (F/R)” value in experiment [1] (setting [5]) is recorded as 1.41 F/R. Moreover, in experiment [2] (setting [6]), the IC50 is over 20000 nM.
